Laboratory results taken from US11579152B2, “Engineered hERG channel proteins, vesicles and methods of identifying small molecule pharmacological agents” (priority 2016, dated 2023).
Like-named read-outs stand apart in the source and are kept apart here.

Legend:
hERG channel [1] = biological target: T1, hERG channel (Homo sapiens, UniProt Q12809, DEL141-380/DEL871-1005); assay: liposome flux assay (LFA) with engineered hERG channel protein in proteoliposomes; details: n = 3, mean ± SEM, compared with DMSO controls
hERG channel [2] = biological target: T1, hERG channel; assay: in vitro; details: pH 7.4
hERG = hERG (Homo sapiens, UniProt Q12809); details: cited from earlier work
hERG channel [3] = biological target: T1, hERG channel; assay: biochemical
hERG channel [4] = biological target: T1, hERG channel
[5] = read-out: IC50 patch, electrophysiology-determined values reported in the literature

With `NC[C@H](O)c1ccc(O)c(O)c1` [Arterenol] the “Percentage inhibition (%) at 100 μM” value (hERG channel [1]) was 3.7 ± 4.3%.

In the case of `CC(=O)Nc1ccc(O)cc1` [Acetaminophen], the inhibition at 100 µM (hERG channel [2]) is reported as 11.6 ± 7.5%.

For `CC(=O)CC(c1ccccc1)c1c(O)c2ccccc2oc1=O` (centres unmarked) [Warfarin], the inhibition at 100 µM (hERG channel [2]) was 9.1 ± 5.5%.

For `CC1(C)O[C@H]1COc1c2ccoc2cc2oc(=O)ccc12` [Oxypeucedanin], the inhibition at 100 µM (hERG channel [2]) was 4.5 ± 19.3%.

In the case of `CN1CCN(CCCCN2C(=O)CN(/N=C/c3ccc(-c4ccc(Cl)cc4)o3)C2=O)CC1` [Azimilide], the IC50 (hERG; [5]) is listed as 891 nM and the IC50 (hERG channel [3]) is listed as 4280 ± 1030 nM.

In the case of `COC[C@H]1OC(=O)c2coc3c2[C@@]1(C)C1=C(C3=O)[C@@H]2CCC(=O)[C@@]2(C)C[C@H]1OC(C)=O` [Wortmannin], the inhibition at 100 µM (hERG channel [2]) is reported as 1.7 ± 5.8%.

For `CN(C)c1ccc(O)c2c1C[C@H]1C[C@H]3[C@H](N(C)C)C(O)=C(C(N)=O)C(=O)[C@@]3(O)C(O)=C1C2=O` [Minocycline], the inhibition at 100 µM (hERG channel [2]) was -2.5 ± 11.9%.

Work on `Clc1cccc(Cl)c1N=C1NCCN1` [Clonidine] yielded an inhibition at 100 µM (hERG channel [2]) of 15.2 ± 5.8%.

Work on `CC1=C(CC(=O)O)c2cc(F)ccc2/C1=C\c1ccc([S+](C)[O-])cc1` (centres unmarked) [Sulindac] yielded an inhibition at 100 µM (hERG channel [2]) of 1.1 ± 2.8%.

For `C[N+]1([O-])CCN(C2=Nc3cc(Cl)ccc3Nc3ccccc32)CC1` [Clozapine N-oxide], the “Percentage inhibition (%) at 100 μM” value (hERG channel [4]; 100 µM) was 2.1 ± 3.0%.

Compound `CC(=O)Nc1nnc(S(N)(=O)=O)s1` [Acetazolamide] has an inhibition at 100 µM (hERG channel [2]) of 4.4 ± 1.8%.

For `COc1ccccc1OCC(O)CO` (centres unmarked) [Guaifenesin], the inhibition at 100 µM (hERG channel [2]) was -3.5 ± 7.4%.

In the case of `CC(C(O)c1ccc(O)cc1)N1CCC(Cc2ccccc2)CC1` (centres unmarked) [Ifenprodil], the IC50 (hERG; [5]) is given as 410 nM and the IC50 (hERG channel [3]) is given as 1590 ± 71 nM.

`CN/C(=N/CCSCc1nc[nH]c1C)NC#N` [Cimetidine] showed an inhibition at 100 µM (hERG channel [2]) of 19.9 ± 3.7%.

For `N=C(N)SCCc1ccc(OCc2ccc([N+](=O)[O-])cc2)cc1` [KB-R7943], the IC50 (hERG channel [4]) is given as 1780 ± 140 nM and the IC50 (hERG; [5]) is given as 89 nM.

For `O=c1n(CCCN2CCN(c3cccc(Cl)c3)CC2)nc2ccccn12` [Trazadone], the IC50 (hERG channel [4]) is listed as 9250 ± 529 nM and the IC50 (hERG) is listed as 690 to 2900 nM.

For `COc1cc(Cc2cnc(N)nc2N)cc(OC)c1OC` [Trimethoprim], the inhibition at 100 µM (hERG channel [2]) was 20.6 ± 1.9%.

In the case of `CCN(CC)CCCN(c1ccccc1)C1Cc2ccccc2C1` [Aprindine], the IC50 (hERG; [5]) is listed as 230 nM and the IC50 (hERG channel [3]) is listed as 1880 ± 221 nM.

Compound `C=C(CC)C(=O)c1ccc(OCC(=O)O)c(Cl)c1Cl` [Ethacrynic acid] has an inhibition at 100 µM (hERG channel [2]) of 8.1 ± 4.4%.

Compound `CC1Cc2ccccc2N1NC(=O)c1ccc(Cl)c(S(N)(=O)=O)c1` (centres unmarked) [Indapamide] has an inhibition at 100 µM (hERG channel [2]) of 4.8 ± 6.7%.

`C[N+](C)(C)CCOC(N)=O` [Carbachol] showed an inhibition at 100 µM (hERG channel [2]) of 2.2 ± 4.2%.

`CCCCOc1ccc(CC(=O)NO)cc1` [Bufexamac] gave an inhibition at 100 µM (hERG channel [2]) of 1.7 ± 6.8%.

In the case of Penicillin, the “Percentage inhibition (%) at 100 μM” value (hERG channel [1]) is reported as −0.4 ± 9.5%.

In the case of `CC(C)Cc1ccc(C(C)C(=O)O)cc1` (centres unmarked) [Ibuprofen], the inhibition at 100 µM (hERG channel [2]) is reported as 13.1 ± 2.1%.
